Measured values from patent US20240270701A1, “BETA ADRENERGIC AGONIST AND METHODS OF USING THE SAME” (Curasen Therapeutics, Inc., priority 2021, published 2024).
Like-named read-outs stand apart in the source and are kept apart here.

Tests used:
[1] = biological target: T1, B1-AR (Homo sapiens, UniProt P08588); assay: cAMP Gs dynamic HTRF assay, cells expressing beta-adrenergic receptor (CHO-K1), B1-AR; type: cell-based; conditions: for EC50: cAMP HTRF, read-out: pEC50 [B1-AR] (converted); for Emax: relative to full agonist isoproterenol, read-out: Emax (% iso) (%) [B1-AR]
T1 construct: expressed in transfected cells; host or cells: CHO-K1
Procedure: (§1) cAMP homogeneous time-resolved fluorescence (HTRF): experimental methods. Compound efficacy is determined using the cAMP Gs dynamic HTRF assay (Cisbio, catalog #62AM4PEC) largely following the manufacturer's instructions, also detailed below.
(§2) Standard serial dilution curves are 10-point, 5-fold dilutions starting from a highest concentration of 10 μM. Controls present on every assay plate are 0.1% DMSO (vehicle control), 1 μM isoproterenol (full beta-adrenergic agonist control) and […] xamoterol (partial beta-adrenergic agonist control). […] Assay plates are centrifuged at 500×g for 10 seconds. Compounds and IBMX are prepared at 2× final dose to compensate for addition of cells.
(§3) Cell preparation: 1× stimulation buffer, washing PBS (Dulbecco's phosphate-buffered saline, − Mg − Ca; Caisson Labs, catalog #PBL01), assay PBS (Dulbecco's phosphate-buffered saline, + Mg, + Ca; Caisson Labs, catalog #PBL02) and Versene (0.02% EDTA disodium salt solution in PBS without calcium or magnesium; Caisson Labs, catalog #EDL01) are pre-warmed to 37° C. Cells expressing beta-adrenergic receptor were washed in washing PBS to remove growth medium and then released from the surface by incubating with Versene for 5-10 minutes at 37° C. Cells are harvested using assay PBS, counted manually by hemocytometer or by an automated cell counter, pelleted by centrifugation (200×g, 5 minutes) and resuspended in 37° C. 1× stimulation buffer to a final density of 1.5×10^6 cells/mL. 5 μL of the suspended cell solution (7500 cell total) are added to all wells of the 384 well assay plate, the assay plate was covered with an Axygen® plate seal (Corning PCR-SP) and incubated in a humidified 37° C. environment supplemented with 5% CO2 for 30 minutes.
(§4) HTRF reagent addition, reading and data analysis: After 30 minutes of cell stimulation with test compound, the assay plates are centrifuged at 500×g for 10 seconds, and incubation was stopped with the addition of 5 μL cAMP-D2 acceptor, diluted 1:21 in detection and lysis buffer 2 (Cisbio 62CL2FDF) was added to all cells. Subsequently, 5 μL Anti-cAMP-Eu Donor, diluted 1:21 in detection and lysis buffer 2, was added to cells. Plates were sealed and reactions gently ‘vortexed’ at 900 rpm on a Heidolph Titramax 1000 for at least 30 minutes at room temperature. Plates are centrifuged again at 500×g for 10 seconds, and HTRF was measured using a Tecan Spark plate reader at 50 flashes per well. […] Potency estimates (EC50 and pEC50) are derived from the four-parameter nonlinear regression of the concentration-effect curve and an estimate of relative efficacy is determined by comparing the magnitude of the test compound HTRF signal window (min−max dose) with the signal window of the full agonist control, isoproterenol.

[2] = biological target: T2, B2-AR (Homo sapiens, UniProt P07550); assay: cAMP Gs dynamic HTRF assay, cells expressing beta-adrenergic receptor (CHO-K1), B2-AR; type: cell-based; conditions: for EC50: cAMP HTRF, read-out: pEC50 [B2-AR] (converted); for Emax: relative to full agonist isoproterenol, read-out: Emax (% iso) (%) [B2-AR]
T2 construct: expressed in transfected cells; host or cells: CHO-K1
Procedure: as §1, §2, §3, §4

T1 sequence (P08588 whole entry, species assumed): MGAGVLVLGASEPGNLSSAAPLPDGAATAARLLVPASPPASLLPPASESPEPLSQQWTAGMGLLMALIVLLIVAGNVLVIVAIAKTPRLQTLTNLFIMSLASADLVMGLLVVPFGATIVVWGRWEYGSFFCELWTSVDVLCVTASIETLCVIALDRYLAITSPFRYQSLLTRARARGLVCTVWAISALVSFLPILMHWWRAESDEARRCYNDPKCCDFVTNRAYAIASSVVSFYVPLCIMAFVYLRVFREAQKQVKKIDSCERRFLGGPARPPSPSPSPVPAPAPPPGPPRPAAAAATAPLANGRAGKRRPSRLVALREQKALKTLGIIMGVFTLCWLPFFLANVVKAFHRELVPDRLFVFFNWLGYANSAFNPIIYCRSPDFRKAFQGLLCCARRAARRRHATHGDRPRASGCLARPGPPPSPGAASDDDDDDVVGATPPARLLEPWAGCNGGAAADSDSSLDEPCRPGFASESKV
T2 sequence (P07550 whole entry, species assumed): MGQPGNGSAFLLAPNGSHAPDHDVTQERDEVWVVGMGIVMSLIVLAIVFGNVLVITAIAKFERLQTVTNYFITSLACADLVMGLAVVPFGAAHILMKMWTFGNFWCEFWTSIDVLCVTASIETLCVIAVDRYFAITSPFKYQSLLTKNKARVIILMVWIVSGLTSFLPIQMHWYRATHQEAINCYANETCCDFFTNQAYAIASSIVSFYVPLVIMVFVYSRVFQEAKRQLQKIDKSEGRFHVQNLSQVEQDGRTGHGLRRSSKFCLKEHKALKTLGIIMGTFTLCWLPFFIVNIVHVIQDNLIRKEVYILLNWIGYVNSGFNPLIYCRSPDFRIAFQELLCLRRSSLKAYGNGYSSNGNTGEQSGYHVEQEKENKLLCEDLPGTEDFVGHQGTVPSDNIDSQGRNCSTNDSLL

Row | SMILES | EC50 [1] [nM] | Emax [1] [%] | EC50 ([2]; CHO-K1 cells) [nM] | Emax ([2]; CHO-K1 cells) [%] | Emax ([2]; CHO-K1, CHO-K1 cells) [%]
1 | Cn1c(=O)[nH]c2cccc([C@@H](O)CNC(C)(C)C)c21 [I-93] | > 1000 | 70 to 90 | > 1000 | > 90 | –
2 | CC(C)CNC[C@H](O)c1cc(C#N)cc2[nH]ncc12 [I-160] | 100 to 1000 | 70 to 90 | 100 to 1000 | – | 70 to 90
3 | CC(C)CNC[C@H](O)c1cccc2[nH]cc(F)c12 [I-111] | 10 to 100 | > 90 | 10 to 100 | – | 70 to 90
4 | CC(C)CNC[C@H](O)c1cccc2[nH]ncc12 [I-133] | 10 to 100 | 70 to 90 | < 10 | – | > 90
5 | CC(C)(C)NC[C@H](O)c1ccc(Cl)c2[nH]nc(F)c12 [I-189] | < 10 | > 90 | < 10 | – | 70 to 90
6 | C[C@H](NC[C@H](O)c1cc(C#N)cc2[nH]ncc12)C(C)(C)C [I-5] | > 1000 | 50 to 70 | 100 to 1000 | – | 70 to 90
7 | C[C@H](NC[C@H](O)c1cccc2[nH]ncc12)C1CC1 [I-11] | < 10 | > 90 | < 10 | – | > 90
8 | O[C@@H](CNC1CC1)c1cccc2[nH]cc(F)c12 [I-108] | 10 to 100 | > 90 | 10 to 100 | – | > 90
9 | CC(C)[C@H](C)NC[C@H](O)c1ccc(F)c2[nH]ncc12 [I-36] | < 10 | 70 to 90 | < 10 | – | > 90
10 | Cc1nc(N)c(Cl)cc1[C@H](CO)NC1CC(F)(F)C1 [I-185] | > 1000 | < 50 | > 1000 | < 50 | –
11 | CC1(NC[C@H](O)c2cccc3[nH]nc(F)c23)CCC1 [I-130] | < 10 | > 90 | < 10 | > 90 | –
12 | CC(C)[C@@H](C)NC[C@H](O)c1cccc2[nH]ncc12 [I-33] | < 10 | 70 to 90 | < 10 | > 90 | –
13 | CC(C)CNC[C@H](O)c1cccc2[nH]nc(F)c12 [I-138] | 10 to 100 | 70 to 90 | < 10 | > 90 | –
14 | CC[C@H](C)NC[C@H](O)c1cc(F)cc2[nH]ncc12 [I-34] | < 10 | > 90 | < 10 | 70 to 90 | –
15 | O[C@@H](CNC1CCC1)c1cccc2[nH]cc(F)c12 [I-113] | < 10 | > 90 | 10 to 100 | – | > 90
16 | CC(C)(C)NC[C@@H](O)c1cccc(Br)n1 [I-143] | 100 to 1000 | 70 to 90 | > 1000 | – | 50 to 70
17 | CC(C)(C)NC[C@H](O)c1cccc2[nH]nc(C(F)F)c12 [I-175] | 100 to 1000 | 70 to 90 | 100 to 1000 | 70 to 90 | –
18 | O[C@@H](CNC1CCC1)c1ccc(F)c2[nH]ncc12 [I-137] | < 10 | 70 to 90 | < 10 | > 90 | –

Row | SMILES | EC50 [1] [nM] | Emax [1] [%] | EC50 ([2]; CHO-K1 cells) [nM] | Emax ([2]; CHO-K1 cells) [%] | Emax ([2]; CHO-K1, CHO-K1 cells) [%]
19 | O[C@@H](CNC1CC1)c1ccc(Cl)c2[nH]ncc12 [I-121] | < 10 | 50 to 70 | < 10 | – | 70 to 90
20 | CC(C)(C)NC[C@H](O)c1cc2cccnc2cc1Cl [I-80] | 100 to 1000 | 70 to 90 | 10 to 100 | – | < 50
21 | N#Cc1cc([C@@H](O)CNC2CCC2)c2cn[nH]c2c1 [I-152] | 10 to 100 | 70 to 90 | 10 to 100 | > 90 | –
22 | O[C@@H](CNC1CCC1)c1cccc2[nH]ncc12 [I-127] | < 10 | > 90 | < 10 | – | > 90
23 | CC(C)(C)NC[C@H](O)c1cccc2[nH]nc(C3CC3)c12 [I-125] | 100 to 1000 | 70 to 90 | 100 to 1000 | 70 to 90 | –
24 | CC(C)(C)CNC[C@H](O)c1ccc(Cl)c2[nH]ncc12 [I-68] | 10 to 100 | 70 to 90 | < 10 | 70 to 90 | –
25 | Cc1n[nH]c2cccc([C@@H](O)CNC3CC3)c12 [I-167] | > 1000 | 70 to 90 | 100 to 1000 | – | 70 to 90
26 | Cc1nc(N)ccc1[C@@H](O)CNC1(C)CCC1 [I-154] | 100 to 1000 | > 90 | < 10 | – | > 90
27 | CC1(CNC[C@H](O)c2ccc(F)c3[nH]ncc23)CC1 [I-81] | 10 to 100 | 70 to 90 | < 10 | > 90 | –
28 | CCC(C)(C)NC[C@H](O)c1cc(C#N)cc2[nH]ncc12 [I-52] | 100 to 1000 | 70 to 90 | 10 to 100 | – | > 90
29 | O[C@@H](CNCC1CC1)c1cccc2[nH]ncc12 [I-76] | < 10 | 70 to 90 | < 10 | > 90 | –
30 | CC1(NC[C@H](O)c2ccc(Cl)c3[nH]ncc23)CC1 [I-120] | < 10 | 70 to 90 | < 10 | – | 70 to 90
31 | CC1(NC[C@H](O)c2cccc3[nH]cc(F)c23)CCC1 [I-110] | < 10 | > 90 | < 10 | – | > 90
32 | CC(C)(C)NC[C@H](O)c1ccc2ncncc2c1 [I-77] | > 1000 | 50 to 70 | 100 to 1000 | – | 50 to 70
33 | C[C@H](NC[C@H](O)c1ccc(F)c2[nH]ncc12)C(C)(C)C [I-14] | 100 to 1000 | 70 to 90 | < 10 | – | 50 to 70
34 | Cc1nc(N)ccc1[C@@H](O)CNC(C)(C)C [I-150] | 10 to 100 | > 90 | < 10 | – | > 90
35 | CC(C)(CO)NC[C@H](O)c1ccc(Cl)c2[nH]ncc12 [I-116] | 10 to 100 | 70 to 90 | < 10 | – | 70 to 90
36 | CCC(C)(CC)NC[C@H](O)c1ccc(F)c2[nH]ncc12 [I-28] | < 10 | > 90 | < 10 | – | > 90
